What all share (format): biochemical
One assay deals with JAK2 (Homo sapiens (Human), UniProt O60674). Nature of the assay: JAK2 Inhibition Assay (Example C, Omnia kinase fluorescence peptide substrate assay). Conditions: JAK2 Enzyme IC50 1 mM ATP, averaged IC50 ranges. An outline of the steps:
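Kinetic fluorescence read of Omnia Y7 peptide (10 μM) phosphorylation, ex 360/em 485 nm every 50 s over 45 min, by 4 nM JAK2 at 1 mM ATP. Buffer 25 mM HEPES pH 7.4, 10 mM MgCl2, 0.01% Triton X-100, 1 mM DTT; final DMSO 2%. Percent-of-control values fitted by 4-parameter logistic for IC50.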

A further assay deals with JAK3 (Homo sapiens (Human), UniProt P52333). In words: JAK3 Inhibition Assay (Example D, Omnia kinase fluorescence peptide substrate assay). An outline of the steps: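 Omnia Sox-peptide kinetic read (ex 360 nm, em 485 nm, every 50 s over 45 min) tracked phosphorylation of 10 μM Y7 peptide by 2 nM recombinant JAK3 at 1 mM ATP. Buffer: 25 mM HEPES pH 7.4, 10 mM MgCl2, 0.01% Triton X-100, 1 mM DTT, with 2% DMSO final.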

For a further assay, the target named is JAK1 (Homo sapiens (Human), UniProt P23458). Nature of the assay: JAK1 Inhibition Assay (Example B, Omnia kinase fluorescence peptide substrate assay). In short, it runs like this:
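Kinetic fluorescence read (360 nm excitation, 485 nm emission, every 50 s over 45 min) of Omnia Y12 peptide (8 μM) phosphorylation by 12.5 nM human JAK1 at 1 mM ATP. Buffer: HEPES pH 7.4, MgCl2, Triton X-100, DTT; 2% DMSO. IC50 = concentration giving 50 POC on logistic curve.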

In a further assay the target is Human Tyk2 kinase domain (Homo sapiens (Human), UniProt P29597). In words: Tyk2 Inhibition Assay (Example A, Omnia kinase fluorescence peptide substrate assay). Conditions: TYK2 Enzyme IC50 1 mM ATP, averaged IC50 ranges. An outline of the steps: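 IC50 values come from a 4-parameter logistic fit of percent-of-control data, with compounds at 2% final DMSO. Reactions held 1 nM His-tag-cleaved Tyk2 (aa 886–1187), 8 μM Omnia Y12 peptide and 1 mM ATP in pH 7.4 HEPES buffer with 10 mM MgCl2, Triton X-100 and DTT. Sox fluorescence (360/485 nm) was monitored kinetically over 45 min.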

Where [1] appears, read: JAK1 Enzyme IC50 1 mM ATP, 1 mM ATP, averaged IC50 ranges.

Where two headings read alike, the source gives them in different places.

JAK2, sequence (O60674 whole entry): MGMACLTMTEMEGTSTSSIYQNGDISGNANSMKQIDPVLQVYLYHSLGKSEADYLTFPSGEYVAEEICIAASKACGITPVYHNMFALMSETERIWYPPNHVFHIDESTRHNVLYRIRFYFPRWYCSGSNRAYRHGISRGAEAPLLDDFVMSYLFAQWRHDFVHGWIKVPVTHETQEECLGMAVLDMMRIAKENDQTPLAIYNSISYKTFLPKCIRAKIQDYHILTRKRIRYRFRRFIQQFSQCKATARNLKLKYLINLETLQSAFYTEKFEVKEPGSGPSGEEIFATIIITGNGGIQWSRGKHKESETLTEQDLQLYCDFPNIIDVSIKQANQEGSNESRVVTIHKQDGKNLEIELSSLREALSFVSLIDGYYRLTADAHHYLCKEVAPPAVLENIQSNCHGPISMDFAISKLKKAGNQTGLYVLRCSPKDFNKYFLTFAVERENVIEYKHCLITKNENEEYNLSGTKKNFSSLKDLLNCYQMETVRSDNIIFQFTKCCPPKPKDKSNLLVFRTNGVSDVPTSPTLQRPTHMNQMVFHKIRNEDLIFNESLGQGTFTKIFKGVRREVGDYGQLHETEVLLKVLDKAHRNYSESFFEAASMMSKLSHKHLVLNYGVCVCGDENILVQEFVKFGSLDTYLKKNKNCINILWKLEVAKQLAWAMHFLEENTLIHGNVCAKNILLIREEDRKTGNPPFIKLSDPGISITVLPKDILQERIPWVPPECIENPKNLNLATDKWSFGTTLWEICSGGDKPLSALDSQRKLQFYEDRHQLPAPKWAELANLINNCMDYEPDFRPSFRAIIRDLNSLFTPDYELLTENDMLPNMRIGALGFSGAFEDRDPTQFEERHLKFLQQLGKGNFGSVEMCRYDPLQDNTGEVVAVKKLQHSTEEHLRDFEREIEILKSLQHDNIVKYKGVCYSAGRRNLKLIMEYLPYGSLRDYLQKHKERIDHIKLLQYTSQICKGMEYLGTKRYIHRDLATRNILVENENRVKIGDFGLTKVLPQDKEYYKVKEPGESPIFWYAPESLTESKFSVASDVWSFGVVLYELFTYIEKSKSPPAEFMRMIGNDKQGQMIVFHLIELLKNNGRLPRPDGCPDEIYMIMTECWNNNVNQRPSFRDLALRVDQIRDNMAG
Human Tyk2 kinase domain, sequence (P29597 886-1187): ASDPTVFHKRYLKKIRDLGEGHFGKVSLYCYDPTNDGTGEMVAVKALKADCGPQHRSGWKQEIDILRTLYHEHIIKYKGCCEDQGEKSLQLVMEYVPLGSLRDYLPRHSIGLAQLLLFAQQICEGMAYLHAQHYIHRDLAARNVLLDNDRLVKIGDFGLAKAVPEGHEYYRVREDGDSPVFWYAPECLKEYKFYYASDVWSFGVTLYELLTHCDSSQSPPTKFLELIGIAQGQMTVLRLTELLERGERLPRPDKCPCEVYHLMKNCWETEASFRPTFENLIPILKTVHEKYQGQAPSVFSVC
JAK1, sequence (P23458 whole entry): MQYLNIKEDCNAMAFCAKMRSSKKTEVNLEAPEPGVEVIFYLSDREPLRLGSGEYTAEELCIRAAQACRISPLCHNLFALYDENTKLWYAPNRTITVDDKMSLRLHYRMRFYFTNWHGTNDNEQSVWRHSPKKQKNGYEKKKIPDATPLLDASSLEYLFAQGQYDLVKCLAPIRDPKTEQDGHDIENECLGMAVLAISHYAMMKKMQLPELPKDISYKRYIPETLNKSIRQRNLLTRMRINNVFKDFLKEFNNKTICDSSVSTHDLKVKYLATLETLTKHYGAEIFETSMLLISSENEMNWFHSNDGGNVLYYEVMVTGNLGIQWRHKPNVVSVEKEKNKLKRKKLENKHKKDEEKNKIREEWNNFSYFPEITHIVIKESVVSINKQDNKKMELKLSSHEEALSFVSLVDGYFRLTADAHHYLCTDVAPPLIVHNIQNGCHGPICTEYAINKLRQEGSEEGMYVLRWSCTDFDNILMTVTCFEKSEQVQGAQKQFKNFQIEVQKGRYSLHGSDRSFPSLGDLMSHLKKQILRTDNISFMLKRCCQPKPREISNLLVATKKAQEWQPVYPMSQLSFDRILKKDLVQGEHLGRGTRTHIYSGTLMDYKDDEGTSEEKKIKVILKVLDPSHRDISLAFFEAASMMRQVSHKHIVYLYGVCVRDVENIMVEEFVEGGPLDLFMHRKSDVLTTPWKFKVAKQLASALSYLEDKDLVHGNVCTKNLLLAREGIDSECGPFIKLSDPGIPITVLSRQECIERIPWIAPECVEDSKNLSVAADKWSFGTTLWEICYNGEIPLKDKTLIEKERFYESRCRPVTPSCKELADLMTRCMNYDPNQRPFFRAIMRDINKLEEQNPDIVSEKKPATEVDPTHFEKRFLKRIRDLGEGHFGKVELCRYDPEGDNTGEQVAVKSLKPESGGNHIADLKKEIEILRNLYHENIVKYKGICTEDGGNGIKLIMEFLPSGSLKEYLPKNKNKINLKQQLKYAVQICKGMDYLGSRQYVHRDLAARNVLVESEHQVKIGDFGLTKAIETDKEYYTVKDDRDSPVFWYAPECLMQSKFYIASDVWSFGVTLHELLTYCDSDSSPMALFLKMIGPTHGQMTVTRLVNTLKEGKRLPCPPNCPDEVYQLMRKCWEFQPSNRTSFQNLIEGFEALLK
JAK3, sequence (P52333 whole entry): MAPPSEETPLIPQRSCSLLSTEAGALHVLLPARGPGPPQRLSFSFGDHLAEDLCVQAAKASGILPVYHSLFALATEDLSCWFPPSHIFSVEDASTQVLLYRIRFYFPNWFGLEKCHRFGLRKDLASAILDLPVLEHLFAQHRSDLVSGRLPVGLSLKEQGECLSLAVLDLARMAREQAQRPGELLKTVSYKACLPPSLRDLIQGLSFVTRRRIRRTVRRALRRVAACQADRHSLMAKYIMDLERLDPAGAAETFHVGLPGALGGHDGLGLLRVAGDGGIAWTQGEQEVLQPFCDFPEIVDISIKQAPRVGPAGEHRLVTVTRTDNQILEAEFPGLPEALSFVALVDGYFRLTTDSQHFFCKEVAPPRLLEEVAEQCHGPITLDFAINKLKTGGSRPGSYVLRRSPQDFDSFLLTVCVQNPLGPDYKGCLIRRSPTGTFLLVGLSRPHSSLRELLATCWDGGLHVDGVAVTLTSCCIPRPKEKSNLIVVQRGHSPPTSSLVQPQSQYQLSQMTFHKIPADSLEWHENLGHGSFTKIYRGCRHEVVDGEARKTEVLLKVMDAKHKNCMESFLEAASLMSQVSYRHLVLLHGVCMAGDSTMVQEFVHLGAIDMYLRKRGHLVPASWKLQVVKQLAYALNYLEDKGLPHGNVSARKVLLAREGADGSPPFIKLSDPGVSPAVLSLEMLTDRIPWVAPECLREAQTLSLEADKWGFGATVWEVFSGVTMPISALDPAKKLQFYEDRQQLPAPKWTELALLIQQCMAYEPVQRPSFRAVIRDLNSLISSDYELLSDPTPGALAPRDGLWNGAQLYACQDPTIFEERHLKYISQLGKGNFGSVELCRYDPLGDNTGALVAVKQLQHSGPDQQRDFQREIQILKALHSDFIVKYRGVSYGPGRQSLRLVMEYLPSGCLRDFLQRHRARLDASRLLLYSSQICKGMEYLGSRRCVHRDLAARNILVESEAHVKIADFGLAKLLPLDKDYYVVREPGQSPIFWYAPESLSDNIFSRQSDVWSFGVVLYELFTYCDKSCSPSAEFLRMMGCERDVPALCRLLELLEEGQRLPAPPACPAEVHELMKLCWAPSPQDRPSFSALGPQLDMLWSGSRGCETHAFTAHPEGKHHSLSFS

Broadly, the IC50 is the concentration that gives 50% inhibition. With `CC(C)C[C@H](C)n1cc(-c2nc(-c3cnn(C(CO)CO)c3)cn3nccc23)cn1` [Example 87, (S)-2-(4-(4-(1-(4-methylpentan-2-yl)-1H-pyrazol-4-yl)pyrazolo[1,5-a]pyrazin-6-yl)-1H-pyrazol-1-yl)propane-1,3-diol], the IC50 against JAK2 lay in the range of 100 to 1000 nM; at JAK3, 1000 to 10000 nM; against JAK1 it was 1000 to 10000 nM; on Human Tyk2 kinase domain it was 100 to 1000 nM.

Consider `CC(C)C[C@@H](C)n1cc(-c2nc(-c3cnn(C(CO)CO)c3)cn3nccc23)cn1` [Example 88, (R)-2-(4-(4-(1-(4-methylpentan-2-yl)-1H-pyrazol-4-yl)pyrazolo[1,5-a]pyrazin-6-yl)-1H-pyrazol-1-yl)propane-1,3-diol], for which the IC50 against JAK2 lay in the range of 100 to 1000 nM; against JAK3, 1000 to 10000 nM; on JAK1 it was 1000 to 10000 nM; against Human Tyk2 kinase domain, 100 to 1000 nM.

For the molecule `CCC(CC)n1cc(-c2nc(-c3cnn([C@@H](C)[C@H](O)CO)c3)cn3nccc23)cn1` [Example 89, (2S,3S)-3-(4-(4-(1-(pentan-3-yl)-1H-pyrazol-4-yl)pyrazolo[1,5-a]pyrazin-6-yl)-1H-pyrazol-1-yl)butane-1,2-diol], the IC50 at JAK2 was in the range of 10 to 100 nM; against JAK3 it was 1000 to 10000 nM; on JAK1, 100 to 1000 nM; at Human Tyk2 kinase domain, 10 to 100 nM.

As to `CCC(CC)n1cc(-c2nc(-c3cnn(CC(=O)NC(C)C)c3)cn3nccc23)cn1` [Example 97, N-isopropyl-2-(4-(4-(1-(pentan-3-yl)-1H-pyrazol-4-yl)pyrazolo[1,5-a]pyrazin-6-yl)-1H-pyrazol-1-yl)acetamide], the IC50 against JAK2 is 100 to 1000 nM; at JAK3 it was 1000 to 10000 nM; on JAK1 it was 100 to 1000 nM; against Human Tyk2 kinase domain, 10 to 100 nM.

On to `CCC(CC)n1cc(-c2nc(-c3cnn(CC(O)CN)c3)cn3nccc23)cn1` (centres unmarked) [Example 98, 1-amino-3-(4-(4-(1-(pentan-3-yl)-1H-pyrazol-4-yl)pyrazolo[1,5-a]pyrazin-6-yl)-1H-pyrazol-1-yl)propan-2-ol], for which the IC50 against JAK2 lay in the range of 10 to 100 nM; against JAK3, 1000 to 10000 nM; on JAK1 (setting [1]), 1000 to 10000 nM; at Human Tyk2 kinase domain, 10 to 100 nM.

For `CCC(CC)n1cc(-c2nc(-c3cnn(C[C@H](O)CN(C)C)c3)cn3nccc23)cn1` [Example 99, (R)-1-(dimethylamino)-3-(4-(4-(1-(pentan-3-yl)-1H-pyrazol-4-yl)pyrazolo[1,5-a]pyrazin-6-yl)-1H-pyrazol-1-yl)propan-2-ol], the IC50 against JAK2 is 10 to 100 nM; against JAK3, 1000 to 10000 nM; on JAK1 (setting [1]), 1000 to 10000 nM; at Human Tyk2 kinase domain, 10 to 100 nM.

Consider `CCC(CC)n1cc(-c2nc(-c3cnn(C[C@H](O)CNC)c3)cn3nccc23)cn1` [Example 100, (R)-1-(methylamino)-3-(4-(4-(1-(pentan-3-yl)-1H-pyrazol-4-yl)pyrazolo[1,5-a]pyrazin-6-yl)-1H-pyrazol-1-yl)propan-2-ol], for which the concentration for half-maximal inhibition (IC50) was in the range of 10 to 100 nM against JAK2, 1000 to 10000 nM on JAK3, 1000 to 10000 nM at JAK1 (setting [1]) and 10 to 100 nM against Human Tyk2 kinase domain.

On to `CCC(CC)n1cc(-c2nc(-c3cnn(C[C@@H](O)CN(C)C)c3)cn3nccc23)cn1` [Example 101, (S)-1-(dimethylamino)-3-(4-(4-(1-(pentan-3-yl)-1H-pyrazol-4-yl)pyrazolo[1,5-a]pyrazin-6-yl)-1H-pyrazol-1-yl)propan-2-ol], for which the IC50 against JAK2 lay in the range of 10 to 100 nM; at JAK3 it was 1000 to 10000 nM; against JAK1 (setting [1]), 1000 to 10000 nM; at Human Tyk2 kinase domain, 10 to 100 nM.

`CCC(CC)n1cc(-c2nc(-c3cnn(C[C@@H](O)CNC)c3)cn3nccc23)cn1` [Example 102, (S)-1-(methylamino)-3-(4-(4-(1-(pentan-3-yl)-1H-pyrazol-4-yl)pyrazolo[1,5-a]pyrazin-6-yl)-1H-pyrazol-1-yl)propan-2-ol]: the IC50 was in the range of 10 to 100 nM against JAK2, 1000 to 10000 nM at JAK3, 1000 to 10000 nM against JAK1 (setting [1]) and 100 to 1000 nM against Human Tyk2 kinase domain.

Turning to `CCC(CC)n1cc(-c2nc(-c3cnn(C[C@H](O)CN4CC(OC)C4)c3)cn3nccc23)cn1` [Example 103, (R)-1-(3-methoxyazetidin-1-yl)-3-(4-(4-(1-(pentan-3-yl)-1H-pyrazol-4-yl)pyrazolo[1,5-a]pyrazin-6-yl)-1H-pyrazol-1-yl)propan-2-ol], the IC50 lay in the range of 10 to 100 nM on JAK2, 1000 to 10000 nM against JAK3, 1000 to 10000 nM against JAK1 (setting [1]) and 10 to 100 nM at Human Tyk2 kinase domain.

Regarding `CCC(CC)n1cc(-c2nc(-c3cnn(C[C@@H](O)CN4CC(OC)C4)c3)cn3nccc23)cn1` [Example 104, (S)-1-(3-methoxyazetidin-1-yl)-3-(4-(4-(1-(pentan-3-yl)-1H-pyrazol-4-yl)pyrazolo[1,5-a]pyrazin-6-yl)-1H-pyrazol-1-yl)propan-2-ol], the IC50 on JAK2 lay in the range of 10 to 100 nM; at JAK3, 1000 to 10000 nM; at JAK1 (setting [1]), 1000 to 10000 nM; against Human Tyk2 kinase domain it was 10 to 100 nM.

Regarding `CCC(CC)n1cc(-c2nc(-c3cnn(C[C@H](O)CN4CCCC4)c3)cn3nccc23)cn1` [Example 105, (R)-1-(4-(4-(1-(pentan-3-yl)-1H-pyrazol-4-yl)pyrazolo[1,5-a]pyrazin-6-yl)-1H-pyrazol-1-yl)-3-(pyrrolidin-1-yl)propan-2-ol], the IC50 fell in the range of 100 to 1000 nM on JAK2, 1000 to 10000 nM against JAK3, 1000 to 10000 nM against JAK1 (setting [1]) and 100 to 1000 nM against Human Tyk2 kinase domain.

Consider `CCC(CC)n1cc(-c2nc(-c3cnn(C[C@@H](O)CN4CCCC4)c3)cn3nccc23)cn1` [Example 106, (S)-1-(4-(4-(1-(pentan-3-yl)-1H-pyrazol-4-yl)pyrazolo[1,5-a]pyrazin-6-yl)-1H-pyrazol-1-yl)-3-(pyrrolidin-1-yl)propan-2-ol], for which the IC50 was in the range of 100 to 1000 nM on JAK2, 1000 to 10000 nM against JAK3, 1000 to 10000 nM at JAK1 (setting [1]) and 100 to 1000 nM against Human Tyk2 kinase domain.

Regarding `CCC(CC)n1cc(-c2nc(-c3cnn(C[C@@H](O)COC)c3)cn3nccc23)cn1` [Example 107, (R)-1-methoxy-3-(4-(4-(1-(pentan-3-yl)-1H-pyrazol-4-yl)pyrazolo[1,5-a]pyrazin-6-yl)-1H-pyrazol-1-yl)propan-2-ol], the IC50 at JAK2 is 10 to 100 nM; on JAK3 it was 1000 to 10000 nM; against JAK1 it was 100 to 1000 nM; against Human Tyk2 kinase domain it was 10 to 100 nM.

Take `CCC(CC)n1cc(-c2nc(-c3cnn(C[C@H](O)COC)c3)cn3nccc23)cn1` [Example 108, (S)-1-methoxy-3-(4-(4-(1-(pentan-3-yl)-1H-pyrazol-4-yl)pyrazolo[1,5-a]pyrazin-6-yl)-1H-pyrazol-1-yl)propan-2-ol]: the IC50 fell in the range of 10 to 100 nM on JAK2, 1000 to 10000 nM at JAK3, 100 to 1000 nM on JAK1 and 10 to 100 nM at Human Tyk2 kinase domain.

Consider `CCC(CC)n1cc(-c2nc(-c3cnn(C[C@@H](C)O)c3)cn3nccc23)cn1` [Example 109, (R)-1-(4-(4-(1-(pentan-3-yl)-1H-pyrazol-4-yl)pyrazolo[1,5-a]pyrazin-6-yl)-1H-pyrazol-1-yl)propan-2-ol], for which the IC50 against JAK2 was in the range of 1000 to 10000 nM; at JAK3, 1000 to 10000 nM; against JAK1, 1000 to 10000 nM; at Human Tyk2 kinase domain it was 100 to 1000 nM.

For the molecule `CCC(CC)n1cc(-c2nc(-c3cnn(C[C@H](C)O)c3)cn3nccc23)cn1` [Example 110, (S)-1-(4-(4-(1-(pentan-3-yl)-1H-pyrazol-4-yl)pyrazolo[1,5-a]pyrazin-6-yl)-1H-pyrazol-1-yl)propan-2-ol], the half-inhibitory concentration (IC50) is 10 to 100 nM against JAK2, 1000 to 10000 nM against JAK3, 100 to 1000 nM against JAK1 and 10 to 100 nM at Human Tyk2 kinase domain.

For `CCC(CC)n1cc(-c2nc(-c3cnn(CC(O)CC(F)(F)F)c3)cn3nccc23)cn1` (centres unmarked) [Example 111, 4,4,4-trifluoro-1-(4-(4-(1-(pentan-3-yl)-1H-pyrazol-4-yl)pyrazolo[1,5-a]pyrazin-6-yl)-1H-pyrazol-1-yl)butan-2-ol], the IC50 is 10 to 100 nM against JAK2, 1000 to 10000 nM on JAK3, 100 to 1000 nM on JAK1 and 10 to 100 nM on Human Tyk2 kinase domain.

Turning to `CCC(CC)n1cc(-c2nc(-c3cnn(CC(O)C(C)(C)C)c3)cn3nccc23)cn1` (centres unmarked) [Example 112, 3,3-dimethyl-1-(4-(4-(1-(pentan-3-yl)-1H-pyrazol-4-yl)pyrazolo[1,5-a]pyrazin-6-yl)-1H-pyrazol-1-yl)butan-2-ol], the IC50 at JAK2 lay within 100 to 1000 nM; on JAK3, 1000 to 10000 nM; against JAK1, 1000 to 10000 nM; against Human Tyk2 kinase domain, 100 to 1000 nM.

Regarding `CCC(CC)n1cc(-c2nc(-c3cnn(CC(O)C(C)C)c3)cn3nccc23)cn1` (centres unmarked) [Example 113, 3-methyl-1-(4-(4-(1-(pentan-3-yl)-1H-pyrazol-4-yl)pyrazolo[1,5-a]pyrazin-6-yl)-1H-pyrazol-1-yl)butan-2-ol], the IC50 on JAK2 was in the range of 100 to 1000 nM; against JAK3 it was 1000 to 10000 nM; on JAK1 it was 1000 to 10000 nM; against Human Tyk2 kinase domain, 10 to 100 nM.

These data come from patent publication US10189845B2, “4,6-substituted-pyrazolo[1,5-a]pyrazines as janus kinase inhibitors” (ARRAY BIOPHARMA INC., priority 2014, dated 2019).
